The record followed here is the supplement of paper PMC10307832.

What all share (assay): relative viability (nuclei count vs DMSO), 5 days (fraction); higher = more cells survive
Compound in one experiment: Cc1ccc(F)c(NC(=O)Nc2ccc(-c3cccc4[nH]nc(N)c34)cc2)c1 [Linifanib]
A digest of the protocol: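 Viability was defined as treated-well nuclei divided by vehicle-well nuclei, with the median taken over replicate plates. Cells from lung cancer lines sat overnight at 37 °C in 1536-well plates, received five √10-spaced library-drug doses by pinning on vehicle-anchored plates, and grew 5 days without medium change before one-step fixation, permeabilisation and Hoechst staining, 4× imaging and MetaXpress nuclear counts. Only plates with control CV under 25% and at least one doubling were kept.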

Compound in the experiment “Linifanib + Trametinib”: Cc1ccc(F)c(NC(=O)Nc2ccc(-c3cccc4[nH]nc(N)c34)cc2)c1 [Linifanib] + CC(=O)Nc1cccc(-n2c(=O)n(C3CC3)c(=O)c3c(Nc4ccc(I)cc4F)n(C)c(=O)c(C)c32)c1 [Trametinib] (partner 0.02 µM)
A digest of the protocol:
(§1)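 For relative viability, nuclei counts in treated wells were divided by those in vehicle wells. Lung cancer cell lines had been pin-tool dosed in 1536-well plates the day after seeding and cultured for 5 days, then fixed and stained in one step (final 0.05% Triton X-100, 1% formaldehyde, 1 ug/ml Hoechst) and imaged at 4×. Doses were one drug alone or a fixed anchor-drug dose plus five library-drug doses (not always all listed) in √10 steps, and values are duplicate-plate medians.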

Compound in the experiment “Linifanib + Phenformin”: Cc1ccc(F)c(NC(=O)Nc2ccc(-c3cccc4[nH]nc(N)c34)cc2)c1 [Linifanib] + N=C(N)NC(=N)NCCc1ccccc1 [Phenformin] (partner 250 µM)
A digest of the protocol:
as §1

Compound in the experiment “Linifanib + Decitabine”: Cc1ccc(F)c(NC(=O)Nc2ccc(-c3cccc4[nH]nc(N)c34)cc2)c1 [Linifanib] + Nc1ncn([C@H]2C[C@H](O)[C@@H](CO)O2)c(=O)n1 [Decitabine] (partner 2 µM)
A digest of the protocol: as §1

Compound in the experiment “Linifanib + Vorinostat”: Cc1ccc(F)c(NC(=O)Nc2ccc(-c3cccc4[nH]nc(N)c34)cc2)c1 [Linifanib] + O=C(CCCCCCC(=O)Nc1ccccc1)NO [Vorinostat] (partner 1 µM)
A digest of the protocol: as §1

Compound in the experiment “Linifanib + Bortezomib”: Cc1ccc(F)c(NC(=O)Nc2ccc(-c3cccc4[nH]nc(N)c34)cc2)c1 [Linifanib] + CC(C)C[C@H](NC(=O)[C@H](Cc1ccccc1)NC(=O)c1cnccn1)B(O)O [Bortezomib] (partner 0.002 µM)
A digest of the protocol: as §1

Consider NCI-H1395, for which the relative viability with Linifanib (0.03162 µM) was determined as 0.956; with Linifanib (0.1 µM), 0.983; with Linifanib (0.3162 µM) it was 0.868; with Linifanib + Trametinib (first compound 0.03162 µM) it was 0.943; with Linifanib + Trametinib (first compound 0.1 µM), 0.882; with Linifanib + Trametinib (first compound 0.3162 µM), 0.933. The relative viability was found to be 0.444 with Linifanib + Phenformin (first compound 0.03162 µM); 0.454 with Linifanib + Phenformin (first compound 0.1 µM); 0.414 with Linifanib + Phenformin (first compound 0.3162 µM); 0.725 with Linifanib + Decitabine (first compound 0.03162 µM); 0.753 with Linifanib + Decitabine (first compound 0.1 µM); 0.698 with Linifanib + Decitabine (first compound 0.3162 µM). Moreover, the relative viability came to 0.824 with Linifanib + Vorinostat (first compound 0.03162 µM), 0.71 in the experiment with Linifanib + Vorinostat (first compound 0.1 µM) and 0.633 with Linifanib + Vorinostat (first compound 0.3162 µM).
For the cell line BEN, the relative viability with Linifanib (0.03162 µM) amounted to 0.888; in the experiment with Linifanib (0.1 µM), 1.16; with Linifanib (0.3162 µM), 0.915; in the experiment with Linifanib + Trametinib (first compound 0.03162 µM) it was 0.929; with Linifanib + Trametinib (first compound 0.1 µM) it was 0.946; with Linifanib + Trametinib (first compound 0.3162 µM) it was 1.1. Further, the relative viability with Linifanib + Bortezomib (first compound 0.03162 µM) came out at 0.723; with Linifanib + Bortezomib (first compound 0.1 µM), 0.975; with Linifanib + Bortezomib (first compound 0.3162 µM), 0.778; with Linifanib + Phenformin (first compound 0.03162 µM) it was 0.252; in the experiment with Linifanib + Phenformin (first compound 0.1 µM), 0.245; with Linifanib + Phenformin (first compound 0.3162 µM), 0.243. In addition, the relative viability is 0.772 with Linifanib + Decitabine (first compound 0.03162 µM); 0.818 with Linifanib + Decitabine (first compound 0.1 µM); 0.696 with Linifanib + Decitabine (first compound 0.3162 µM); 0.622 with Linifanib + Vorinostat (first compound 0.03162 µM); 0.558 in the experiment with Linifanib + Vorinostat (first compound 0.1 µM); 0.667 with Linifanib + Vorinostat (first compound 0.3162 µM).
With SK-MES-1, the relative viability worked out at 0.969 in the experiment with Linifanib (0.03162 µM); 1.08 with Linifanib (0.1 µM); 0.965 with Linifanib (0.3162 µM); 0.528 in the experiment with Linifanib + Trametinib (first compound 0.03162 µM); 0.568 with Linifanib + Trametinib (first compound 0.1 µM); 0.507 in the experiment with Linifanib + Trametinib (first compound 0.3162 µM). The relative viability worked out at 0.704 in the experiment with Linifanib + Phenformin (first compound 0.03162 µM); 0.692 with Linifanib + Phenformin (first compound 0.1 µM); 0.653 with Linifanib + Phenformin (first compound 0.3162 µM); 0.352 in the experiment with Linifanib + Decitabine (first compound 0.03162 µM); 0.408 with Linifanib + Decitabine (first compound 0.1 µM); 0.36 in the experiment with Linifanib + Decitabine (first compound 0.3162 µM). Moreover, the figures for the relative viability with Linifanib + Vorinostat (first compound 0.03162 µM), with Linifanib + Vorinostat (first compound 0.1 µM) and in the experiment with Linifanib + Vorinostat (first compound 0.3162 µM) were 1.13, 1.05 and 1.05, respectively.
Take NCI-H1755: the relative viability with Linifanib (0.03162 µM) was 1.03; in the experiment with Linifanib (0.1 µM), 1.06; with Linifanib (0.3162 µM), 0.987; with Linifanib + Trametinib (first compound 0.03162 µM), 0.781; with Linifanib + Trametinib (first compound 0.1 µM), 0.801; in the experiment with Linifanib + Trametinib (first compound 0.3162 µM), 0.831. The relative viability with Linifanib + Bortezomib (first compound 0.03162 µM) was determined as 1.04; with Linifanib + Bortezomib (first compound 0.1 µM), 0.965; with Linifanib + Bortezomib (first compound 0.3162 µM), 0.916; in the experiment with Linifanib + Phenformin (first compound 0.03162 µM), 0.666; in the experiment with Linifanib + Phenformin (first compound 0.1 µM), 0.621; with Linifanib + Phenformin (first compound 0.3162 µM) it was 0.571. The relative viability with Linifanib + Decitabine (first compound 0.03162 µM) is 0.696; in the experiment with Linifanib + Decitabine (first compound 0.1 µM), 0.731; in the experiment with Linifanib + Decitabine (first compound 0.3162 µM), 0.698; with Linifanib + Vorinostat (first compound 0.03162 µM), 0.761; with Linifanib + Vorinostat (first compound 0.1 µM), 0.765; with Linifanib + Vorinostat (first compound 0.3162 µM), 0.892.
As for NCI-H1793, the relative viability with Linifanib (0.03162 µM) is 0.908; in the experiment with Linifanib (0.1 µM), 1.08; with Linifanib (0.3162 µM) it was 0.941; with Linifanib + Trametinib (first compound 0.03162 µM) it was 0.372; in the experiment with Linifanib + Trametinib (first compound 0.1 µM) it was 0.56; in the experiment with Linifanib + Trametinib (first compound 0.3162 µM), 0.434. Further, the relative viability in the experiment with Linifanib + Phenformin (first compound 0.03162 µM) stood at 0.278; with Linifanib + Phenformin (first compound 0.1 µM), 0.379; in the experiment with Linifanib + Phenformin (first compound 0.3162 µM), 0.321; in the experiment with Linifanib + Decitabine (first compound 0.03162 µM), 0.486; with Linifanib + Decitabine (first compound 0.1 µM), 0.412; with Linifanib + Decitabine (first compound 0.3162 µM), 0.586. The relative viability was 0.777 in the experiment with Linifanib + Vorinostat (first compound 0.03162 µM), 0.796 with Linifanib + Vorinostat (first compound 0.1 µM) and 0.745 with Linifanib + Vorinostat (first compound 0.3162 µM).
